Source: ChEMBL document CHEMBL1201862, “PubChem BioAssay data set” (2004)
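Following 48 hours of exposure in 96-well plates, responses at five concentrations were used to interpolate endpoints linearly. GI50: concentration for 50% inhibition of growth.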 Active and inactive are the calls of the source. Rule as the data show it: active = GI50 up to about 1.1 µM and inactive = higher.

Assays:
Assay in all cases: growth of human tumour cells (NCI), 48 h
[1] = test system: PC-3
[2] = test system: OVCAR-3
[3] = test system: NCI-H226
[4] = test system: A549
[5] = test system: HOP-92
[6] = test system: SF-539
[7] = test system: SF-295
[8] = test system: HOP-62
[9] = test system: SNB-78
[10] = test system: SK-MEL-28
[11] = test system: XF498
[12] = test system: KM-20L2
[13] = test system: RPMI-8226
[14] = test system: K562
[15] = test system: NCI-H23
[16] = test system: HCT-15
[17] = test system: OVCAR-5
[18] = test system: SK-MEL-2
[19] = test system: SK-OV-3
[20] = test system: CCRF-CEM
[21] = test system: SK-MEL-5
[22] = test system: SF-268
[23] = test system: CAKI-1
[24] = test system: OVCAR-8
[25] = test system: SNB-19
[26] = test system: UACC-62
[27] = test system: U-251
[28] = test system: HCC 2998
[29] = test system: LOX IMVI
[30] = test system: KM12
[31] = test system: T47D
[32] = test system: M19-MEL
[33] = test system: MCF7
[34] = test system: HCT-116
[35] = test system: NCI-H460
[36] = test system: DU-145
[37] = test system: DLD-1
[38] = test system: HOP-18
[39] = test system: MOLT-4
[40] = test system: RXF 393
[41] = test system: BT-549
[42] = test system: ACHN
[43] = test system: 786-0
[44] = test system: UACC-257
[45] = test system: IGROV-1
[46] = test system: A498
[47] = test system: HL-60
[48] = test system: HT-29
[49] = test system: OVCAR-4
[50] = test system: SR
[51] = test system: Hs-578T
[52] = test system: COLO 205
[53] = test system: NCI-H522
[54] = test system: Malme-3M
[55] = test system: DMS-114
[56] = test system: DMS-273
[57] = test system: MDA-MB-231
[58] = test system: MDA-MB-435
[59] = test system: LXFL 529
[60] = test system: SNB-75
[61] = test system: M14
[62] = test system: SW-620
[63] = test system: EKVX
[64] = test system: MDA-N
[65] = test system: RXF 631
[66] = test system: TK-10
[67] = test system: SN12C
[68] = test system: UO-31

Structure (SMILES): COC1CC(CC2CCC(C)C(C(C)C(=O)O)O2)OC2(OC(C)(C3CCC(C)(C4OC(C5OC(O)(CO)C(C)CC5C)CC4C)O3)CC2C)C1C (stereo unspecified)
- GI50 [1]: 552 nM (active)
- GI50 [2]: 40.6 nM (active)
- GI50 [3]: 1210 nM (inactive)
- GI50 [4]: 111 nM (active)
- GI50 [5]: 1070 nM (active)
- GI50 [6]: 190 nM (active)
- GI50 [7]: 1150 nM (inactive)
- GI50 [8]: 522 nM (active)
- GI50 [9]: 1510 nM (inactive)
- GI50 [10]: 1430 nM (inactive)
- GI50 [11]: 42.3 nM (active)
- GI50 [12]: 124 nM (active)
- GI50 [13]: 167 nM (active)
- GI50 [14]: 50.2 nM (active)
- GI50 [15]: 295 nM (active)
- GI50 [16]: 1850 nM
- GI50 [17]: 8110 nM (inactive)
- GI50 [18]: 646 nM (active)
- GI50 [19]: 7400 nM (inactive)
- GI50 [20]: 22.8 nM (active)
- GI50 [21]: 156 nM (active)
- GI50 [22]: 1880 nM (inactive)
- GI50 [23]: 906 nM (active)
- GI50 [24]: 1380 nM (inactive)
- GI50 [25]: 359 nM (active)
- GI50 [26]: 1610 nM (inactive)
- GI50 [27]: 83.6 nM (active)
- GI50 [28]: 186 nM (active)
- GI50 [29]: 1280 nM (inactive)
- GI50 [30]: 773 nM (active)
- GI50 [31]: 284 nM (active)
- GI50 [32]: 239 nM (active)
- GI50 [33]: 150 nM (active)
- GI50 [34]: 759 nM (active)
- GI50 [35]: 402 nM (active)
- GI50 [36]: 3850 nM (inactive)
- GI50 [37]: 510 nM (active)
- GI50 [38]: 284 nM (active)
- GI50 [39]: 347 nM (active)
- GI50 [40]: < 10.9 nM (active)
- GI50 [41]: 300 nM (active)
- GI50 [42]: 964 nM (active)
- GI50 [43]: 1080 nM (active)
- GI50 [44]: 57.8 nM (active)
- GI50 [45]: 1560 nM (inactive)
- GI50 [46]: 220 nM (active)
- GI50 [47]: 36.3 nM (active)
- GI50 [48]: 183 nM (active)
- GI50 [49]: 6560 nM (inactive)
- GI50 [50]: 63.4 nM (active)
- GI50 [51]: 910 nM (active)
- GI50 [52]: 116 nM (active)
- GI50 [53]: 21.7 nM (active)
- GI50 [54]: 92.3 nM (active)
- GI50 [55]: < 15.1 nM (active)
- GI50 [56]: 71.9 nM (active)
- GI50 [57]: 1530 nM (inactive)
- GI50 [58]: 1750 nM (inactive)
- GI50 [59]: 53.5 nM (active)
- GI50 [60]: 360 nM (active)
- GI50 [61]: 1800 nM (inactive)
- GI50 [62]: 1520 nM (inactive)
- GI50 [63]: 2150 nM (inactive)
- GI50 [64]: 757 nM (active)
- GI50 [65]: 73.8 nM (active)
- GI50 [66]: 5360 nM (inactive)
- GI50 [67]: 257 nM (active)
- GI50 [68]: 1790 nM (inactive)

Structure (SMILES): Cc1ccc2[nH]c3c(C)c4c(c(C)c3c2c1)CN(C)C=C4
- GI50 [2]: 2750 nM (inactive)
- GI50 [3]: 353 nM (active)
- GI50 [4]: 370 nM (active)
- GI50 [5]: 1070 nM (active)
- GI50 [6]: 393 nM (active)
- GI50 [7]: 423 nM (active)
- GI50 [8]: 743 nM (active)
- GI50 [9]: 738 nM (active)
- GI50 [10]: 1980 nM (inactive)
- GI50 [11]: 1250 nM (inactive)
- GI50 [12]: 2180 nM (inactive)
- GI50 [13]: 5350 nM (inactive)
- GI50 [14]: 1420 nM (inactive)
- GI50 [15]: 735 nM (active)
- GI50 [16]: 13800 nM
- GI50 [17]: 3100 nM (inactive)
- GI50 [18]: 1720 nM (inactive)
- GI50 [19]: 330 nM (active)
- GI50 [21]: 1380 nM (inactive)
- GI50 [22]: 353 nM (active)
- GI50 [24]: 444 nM (active)
- GI50 [25]: 520 nM (active)
- GI50 [26]: 1620 nM (inactive)
- GI50 [27]: 271 nM (active)
- GI50 [28]: 1520 nM (inactive)
- GI50 [29]: 3930 nM (inactive)
- GI50 [30]: 540 nM (active)
- GI50 [34]: 2320 nM (inactive)
- GI50 [35]: 2740 nM (inactive)
- GI50 [37]: 1440 nM (inactive)
- GI50 [38]: 7460 nM (inactive)
- GI50 [39]: 1910 nM (inactive)
- GI50 [40]: 1530 nM (inactive)
- GI50 [42]: 6550 nM (inactive)
- GI50 [43]: 325 nM (active)
- GI50 [44]: 2530 nM (inactive)
- GI50 [45]: 698 nM (active)
- GI50 [47]: 4460 nM (inactive)
- GI50 [48]: 2460 nM (inactive)
- GI50 [49]: 1660 nM (inactive)
- GI50 [50]: 1610 nM (inactive)
- GI50 [52]: 285 nM (active)
- GI50 [53]: 152 nM (active)
- GI50 [56]: 1040 nM (active)
- GI50 [59]: 377 nM (active)
- GI50 [60]: 750 nM (active)
- GI50 [61]: 3900 nM (inactive)
- GI50 [62]: 281 nM (active)
- GI50 [63]: 1170 nM (inactive)
- GI50 [65]: 931 nM (active)
- GI50 [66]: 9290 nM (inactive)
- GI50 [67]: 186 nM (active)
- GI50 [68]: 3520 nM (inactive)
